# What was measured:
# recipient HeLa cells = assay: Dye delivery study: CRO dye delivery to recipient cells, flow cytometry; assay type: cell-based; conditions: 300 μM carbenoxolone
# Method: The media for the blocked condition was supplemented with 300 μM carbenoxolone, prepared from a 100 mM stock in water. […] Recipient cells for the blocked condition were incubated in PBS supplemented with 300 μM carbenoxolone. Calcein red-orange-loaded vesicles were formed using calcium-free GPMV buffer. […] This ratio was estimated based on hemocytometer counts of the number of vesicles and of the number of recipient cells in a 12 well dish. […] At least 7,500 cells were analyzed for each trial.
# in vitro [1] = conditions: human, HeLa cells
# Method: Recipient HeLa cells were plated in a 12 well plate at a density of 25,000 cells per well and a total media volume of 2 mL media per well. Seven hours before addition of the GPMVs, recipient cells received fresh media. Just before addition of the GPMVs, the recipient cells were rinsed once with 2 mL PBS and then incubated in 500 μL fresh PBS. Concentrated GPMVs were resuspended in fresh calcium-free GPMV buffer and counted using a hemocytometer. GPMVs were added to recipient cells at a ratio of approximately 1 GPMV per 2 recipient cells and incubated in the dark at 37° C. with 5% CO2 for 2 hours. […] After 24 hours, cell viability was analyzed using a trypan blue or 7-AAD permeability assay.
# For the 7-AAD assay, the cells were trypsinized with 500 μL trypsin for 5 minutes at 37° C., 5% CO2. […] Five μL of 7-AAD was added to 45 μL of the resuspended cells, and analyzed using flow cytometry within three minutes of 7-AAD addition. At least 5,000 cells were analyzed for each trial. […] To determine the percentage of non-viable cells in each sample, a threshold was drawn on the flow cytometry fluorescence histograms at the minimum point between the population of cells excluding the dye and the population of cells including the dye. The percentage of cells with fluorescence above these thresholds were considered non-viable. […]
# HeLa cells = conditions: 24 hours of exposure, literature; cited from earlier work
# in vitro [2] = conditions: human, HeLa cells; remark: listed apart in the source
# Method: Recipient HeLa cells were plated in a 12 well plate at a density of 25,000 cells per well and a total media volume of 2 mL media per well. Seven hours before addition of the GPMVs, recipient cells received fresh media. Just before addition of the GPMVs, the recipient cells were rinsed once with 2 mL PBS and then incubated in 500 μL fresh PBS. Concentrated GPMVs were resuspended in fresh calcium-free GPMV buffer and counted using a hemocytometer. GPMVs were added to recipient cells at a ratio of approximately 1 GPMV per 2 recipient cells and incubated in the dark at 37° C. with 5% CO2 for 2 hours. After incubation, the recipient cells were rinsed with 2 mL media and then incubated in 2 mL fresh media at 37° C. with 5% CO2. After 24 hours, cell viability was analyzed using a trypan blue or 7-AAD permeability assay.
# For the trypan blue assay, the cells were trypsinized with 500 μL trypsin for 5 minutes at 37° C., 5% CO2. […] At least 90 cells were counted for each trial using a hemocytometer. […]
# The relationship between the concentration of doxorubicin added via solution and cell viability was determined by incubating recipient HeLa cells in the specified doxorubicin concentration diluted in media from a 10 mM stock in DMSO for 24 hours. Cell viability was measured using both viability assays as described above.
# in vitro [3] = conditions: human, MCF-7 cells
# Method: To test Connectosomes in a second model cell line, the assay was repeated using recipient MCF-7 cells. […] First, a control study was conducted in which the viability of a confluent monolayer of MCF-7 cells was measured 48 hours after free doxorubicin was added directly to the cell media at increasing concentrations from 10 nM to 100 μM (FIG. 4J). Next, independent cell samples were exposed to increasing concentrations of Connectosomes, which were equivalent in terms of total doxorubicin content to free doxorubicin concentrations of 180 nM, 900 nM, and 4.5 μM.
# CEM-SS lymphocytes = conditions: peptide concentration 0.1-1 mM, CEM-SS lymphocytes in culture; cited from earlier work
molecule,measurement,setting,value
CC1(C)[C@@H](OC(=O)CCC(=O)O)CC[C@]2(C)[C@H]3C(=O)C=C4[C@@H]5C[C@@](C)(C(=O)O)CC[C@]5(C)CC[C@@]4(C)[C@]3(C)CC[C@@H]12 [carbenoxolone],Effect of gap junction inhibitor on CRO dye delivery by Connectosomes,recipient HeLa cells,significantly decreased the average recipient cell fluorescence
"COc1cccc2c1C(=O)c1c(O)c3c(c(O)c1C2=O)C[C@@](O)(C(=O)CO)C[C@@H]3O[C@H]1C[C@H](N)[C@H](O)[C@H](C)O1 [free doxorubicin, doxorubicin]","cytotoxicity at 24 h, 10 µM",in vitro [1],45%
same,Cytotoxic dose of doxorubicin,HeLa cells,approximately 10 μM
same,"cytotoxicity at 24 h, 10 µM",in vitro [2],44%
same,"cytotoxicity at 24 h, 100 µM",in vitro [2],87%
same,"cytotoxicity at 48 h, 100 µM",in vitro [3],44%
SEQ ID NO:1: fusogenic peptide from influenza virus hemagglutinin HA-2,Increase of anti-HIV potency of antisense oligonucleotides,CEM-SS lymphocytes,up to 10 fold
